Laboratory results published in patent US7557244B2, “Substituted biphenyl carboxylic acids and derivatives thereof” (Ortho-McNeil Pharmaceutical, Inc., priority 2006, dated 2009).

Test system: γ-secretase
Experiment: Screening for γ-secretase-modulating activity, Aβ 42 in SKNBE2 cells carrying APP 695-wild type
Format: cell-based
Conditions: at 3 μM
Method: Screening of the Compounds of the Invention for γ-Secretase-Modulating Activity
Screening was carried out using SKNBE2 cells carrying the APP 695-wild type, grown in DMEM/NUT-mix F12 (HAM) provided by Gibco (cat no. 31330-38) containing 5% Serum/Fe supplemented with 1% non-essential amino acids.
Cells were grown to near confluency.
The screening was performed using the assay as described in Citron et al (1997) Nature Medicine 3: 67.
IC50-Values of Selected Compounds of the Invention on the γ-Secretase Activity.

SMILES | WTAPP SKNBE2 Aβ 42 % Inhibition at 3 μM [%]
CC(C)CC(C(=O)O)c1cc(Oc2cc(F)cc(C(F)(F)F)c2)cc(-c2cc(F)cc(C(F)(F)F)c2)c1 (stereo not drawn) [Compound 32, 2-[3′-Fluoro-5-(3-fluoro-5-trifluoromethyl-phenoxy)-5′-trifluoromethyl-biphenyl-3-yl]-4-methyl-pentanoic acid] | 87
CC(C)CC(C(=O)O)c1cc(Oc2cc(F)cc(F)c2)cc(-c2cc(F)cc(C(F)(F)F)c2)c1 (stereo not drawn) [Compound 33, 2-[5-(3,5-Difluoro-phenoxy)-3′-fluoro-5′-trifluoromethyl-biphenyl-3-yl]-4-methyl-pentanoic acid] | 59
CC(C)CC(C(=O)O)c1cc(Oc2ccc(Cl)cc2)cc(-c2ccc(C(F)(F)F)cc2)c1 (stereo not drawn) [Compound 29, 2-[5-(4-Chloro-phenoxy)-4′-trifluoromethyl-biphenyl-3-yl]-4-methyl-pentanoic acid] | 62
CC(C)CC(C(=O)O)c1cc(Oc2ccccc2)cc(-c2ccc(C(F)(F)F)cc2)c1 (stereo not drawn) [Compound 24, 4-Methyl-2-(5-phenoxy-4′-trifluoromethyl-biphenyl-3-yl)-pentanoic acid] | 45
CC(C)CC(C(=O)O)c1cc(Oc2cccc(C(F)(F)F)c2)cc(-c2ccc(Cl)c(C(F)(F)F)c2)c1 (stereo not drawn) [Compound 22, 4-Methyl-2-[4′-chloro-3′-trifluoromethyl-5-(3-trifluoromethylphenoxy)-biphenyl-3-yl]-pentanoic acid] | 81
CC(C)CC(C(=O)O)c1cc(Nc2ccc(F)cc2)cc(-c2ccc(C(F)(F)F)cc2)c1 (stereo not drawn) [Compound 6, 2-[5-(4-Fluoro-phenylamino)-4′-trifluoromethyl-biphenyl-3-yl]-4-methyl-pentanoic acid] | 66
CC(C)CC(C(=O)O)c1cc(Nc2cc(F)cc(F)c2)cc(-c2ccc(C(F)(F)F)cc2)c1 (stereo not drawn) [Compound 1, 2-[5-(3,5-Difluoro-phenylamino)-4′-trifluoromethyl-biphenyl-3-yl]-4-methyl-pentanoic acid] | 73
CC(C)CC(C(=O)O)c1cc(Nc2ccc(Cl)cc2)cc(-c2ccc(C(F)(F)F)cc2)c1 (stereo not drawn) [Compound 5, 2-[5-(4-Chloro-phenylamino)-4′-trifluoromethyl-biphenyl-3-yl]-4-methyl-pentanoic acid] | 79
CC(C)CC(C(=O)O)c1cc(Oc2cccc(C(C)C)c2)cc(-c2ccc(C(F)(F)F)cc2)c1 (stereo not drawn) [Compound 15, 2-[5-(3-Isopropyl-phenoxy)-4′-trifluoromethyl-biphenyl-3-yl]-4-methyl-pentanoic acid] | 65
COc1ccc(Oc2cc(-c3ccc(C(F)(F)F)cc3)cc(C(CC(C)C)C(=O)O)c2)cc1C(F)(F)F (stereo not drawn) [Compound 19, 2-[5-(4-Methoxy-3-trifluoromethyl-phenoxy)-4′-trifluoromethyl-biphenyl-3-yl]-4-methyl-pentanoic acid] | 22
COc1ccc(Oc2cc(-c3ccc(C(F)(F)F)cc3)cc(C(CC(C)C)C(=O)O)c2)cc1 (stereo not drawn) [Compound 28, 2-[5-(4-Methoxy-phenoxy)-4′-trifluoromethyl-biphenyl-3-yl]-4-methyl-pentanoic acid] | −3
CC(C)CC(C(=O)O)c1cc(Nc2ccc(F)cc2C(F)(F)F)cc(-c2cc(C(F)(F)F)cc(C(F)(F)F)c2)c1 (stereo not drawn) [Compound 45, 2-[5-(4-Fluoro-2-trifluoromethyl-phenylamino)-3′,5′-bis-trifluoromethyl-biphenyl-3-yl]-4-methyl-pentanoic acid] | 85
CC(C)CC(C(=O)O)c1cc(Oc2cccc(C(F)(F)F)c2)cc(-c2cc(C(F)(F)F)cc(C(F)(F)F)c2)c1 (stereo not drawn) [Compound 35, 2-[3′,5′-Bis-trifluoromethyl-5-(3-trifluoromethyl-phenoxy)-biphenyl-3-yl]-4-methyl-pentanoic acid] | 90
CC(C)CC(C(=O)O)c1cc(Nc2cc(C(F)(F)F)cc(C(F)(F)F)c2)cc(-c2cc(C(F)(F)F)cc(C(F)(F)F)c2)c1 (stereo not drawn) [Compound 43, 2-[5-(3,5-Bis-trifluoromethyl-phenylamino)-3′,5′-bis-trifluoromethyl-biphenyl-3-yl]-4-methyl-pentanoic acid] | 89
CC(C)CC(C(=O)O)c1cc(Oc2cccc(C(F)(F)F)c2)cc(-c2cc(F)cc(C(F)(F)F)c2)c1 (stereo not drawn) [Compound 31, 2-[3′-Fluoro-5′-trifluoromethyl-5-(3-trifluoromethyl-phenoxy)-biphenyl-3-yl]-4-methyl-pentanoic acid] | 84
CC(C)CC(C(=O)O)c1cc(Nc2ccc(C#N)cc2)cc(-c2ccc(C(F)(F)F)cc2)c1 (stereo not drawn) [Compound 13, 2-[5-(4-Cyano-phenylamino)-4′-trifluoromethyl-biphenyl-3-yl]-4-methyl-pentanoic acid] | 52
CC(C)CC(C(=O)O)c1cc(Oc2cc(F)cc(F)c2)cc(-c2cc(C(F)(F)F)cc(C(F)(F)F)c2)c1 (stereo not drawn) [Compound 36, 2-[5-(3,5-Difluoro-phenoxy)-3′,5′-bis-trifluoromethyl-biphenyl-3-yl]-4-methyl-pentanoic acid] | 90
CC(C)CC(C(=O)O)c1cc(Nc2cc(C(F)(F)F)cc(C(F)(F)F)c2)cc(-c2cc(F)cc(C(F)(F)F)c2)c1 (stereo not drawn) [Compound 42, 2-[5′-Fluoro-5-(3,5-bis-trifluoromethyl-phenylamino)-3′-trifluoromethyl-biphenyl-3-yl]-4-methyl-pentanoic acid] | 75
CC(C)CC(C(=O)O)c1cc(Nc2ccc(F)cc2F)cc(-c2ccc(C(F)(F)F)cc2)c1 (stereo not drawn) [Compound 2, 2-[5-(2,4-Difluoro-phenylamino)-4′-trifluoromethyl-biphenyl-3-yl]-4-methyl-pentanoic acid] | 62
CC(C)CC(C(=O)O)c1cc(Nc2cc(C(F)(F)F)ccc2C(F)(F)F)cc(-c2ccc(Cl)c(C(F)(F)F)c2)c1 (stereo not drawn) [Compound 39, 2-[4′-Chloro-5-(2,5-bis-trifluoromethyl-phenylamino)-3′-trifluoromethyl-biphenyl-3-yl]-4-methyl-pentanoic acid] | 95
COc1cc(Oc2cc(-c3ccc(C(F)(F)F)cc3)cc(C(CC(C)C)C(=O)O)c2)ccc1F (stereo not drawn) [Compound 18, 2-[5-(4-Fluoro-3-methoxy-phenoxy)-4′-trifluoromethyl-biphenyl-3-yl]-4-methyl-pentanoic acid] | 19

Same assay, conditions: read-out: WTAPP SKNBE2 Aβ 42 EC50

SMILES | EC50 [nM]
CC(C)CC(C(=O)O)c1cc(Nc2cc(C(F)(F)F)cc(C(F)(F)F)c2)cc(-c2ccc(Cl)c(C(F)(F)F)c2)c1 (stereo not drawn) [Compound 37, 2-[5-(3,5-Bis-trifluoromethyl-phenylamino)-4′-chloro-3′-trifluoromethyl-biphenyl-3-yl]-4-methyl-pentanoic acid] | 460
CC(C)CC(C(=O)O)c1cc(Nc2cc(Cl)cc(Cl)c2)cc(-c2ccc(C(F)(F)F)cc2)c1 (stereo not drawn) [Compound 7, 2-[5-(3,5-Dichloro-phenylamino)-4′-trifluoromethyl-biphenyl-3-yl]-4-methyl-pentanoic acid] | 420
CC(C)CC(C(=O)O)c1cc(Oc2cc(F)c(F)c(F)c2)cc(-c2ccc(C(F)(F)F)cc2)c1 (stereo not drawn) [Compound 17, 4-Methyl-2-[4′-trifluoromethyl-5-(3,4,5-trifluoro-phenoxy)-biphenyl-3-yl]-pentanoic acid] | 1850
CC(C)CC(C(=O)O)c1cc(Nc2cc(C(F)(F)F)ccc2C(F)(F)F)cc(-c2cc(F)cc(C(F)(F)F)c2)c1 (stereo not drawn) [Compound 40, 2-[5′-Fluoro-5-(2,5-bis-trifluoromethyl-phenylamino)-3′-trifluoromethyl-biphenyl-3-yl]-4-methyl-pentanoic acid] | 330
CC(C)CC(C(=O)O)c1cc(Nc2ccc(C(F)(F)F)cc2)cc(-c2ccc(C(F)(F)F)cc2)c1 (stereo not drawn) [Compound 11, 4-Methyl-2-[4′-trifluoromethyl-5-(4-trifluoromethyl-phenylamino)-biphenyl-3-yl]-pentanoic acid] | 500
CC(C)CC(C(=O)O)c1cc(Oc2cc(F)cc(C(F)(F)F)c2)cc(-c2cc(C(F)(F)F)cc(C(F)(F)F)c2)c1 (stereo not drawn) [Compound 34, 2-[5-(3-Fluoro-5-trifluoromethyl-phenoxy)-3′,5′-bis-trifluoromethyl-biphenyl-3-yl]-4-methyl-pentanoic acid] | 260
CC(C)CC(C(=O)O)c1cc(Nc2ccc(F)cc2C(F)(F)F)cc(-c2ccc(C(F)(F)F)cc2)c1 (stereo not drawn) [Compound 9, 2-[5-(4-Fluoro-2-trifluoromethyl-phenylamino)-4′-trifluoromethyl-biphenyl-3-yl]-4-methyl-pentanoic acid] | 280
CC(C)CC(C(=O)O)c1cc(Nc2cccc(C(F)(F)F)c2)cc(-c2ccc(C(F)(F)F)cc2)c1 (stereo not drawn) [Compound 10, 4-Methyl-2-[4′-trifluoromethyl-5-(3-trifluoromethyl-phenylamino)-biphenyl-3-yl]-pentanoic acid] | 410
CC(C)CC(C(=O)O)c1cc(Oc2ccc(C(F)(F)F)cc2)cc(-c2ccc(C(F)(F)F)cc2)c1 (stereo not drawn) [Compound 16, 4-Methyl-2-[4′-trifluoromethyl-5-(4-trifluoromethyl-phenoxy)-biphenyl-3-yl]-pentanoic acid] | 2250
CC(C)CC(C(=O)O)c1cc(Nc2ccc(C(C)C)cc2)cc(-c2ccc(C(F)(F)F)cc2)c1 (stereo not drawn) [Compound 4, 2-[5-(4-Isopropyl-phenylamino)-4′-trifluoromethyl-biphenyl-3-yl]-4-methyl-pentanoic acid] | 290
CC(C)CC(C(=O)O)c1cc(Oc2cccc(C(F)(F)F)c2)cc(-c2ccc(C(F)(F)F)cc2)c1 (stereo not drawn) [Compound 20, 2 4-Methyl-2-[4′-trifluoromethyl-5-(3-trifluoromethyl-phenoxy)-biphenyl-3-yl]-pentanoic acid] | 660
CC(C)CC(C(=O)O)c1cc(Oc2cc(F)cc(F)c2)cc(-c2ccc(C(F)(F)F)cc2)c1 (stereo not drawn) [Compound 27, 2-[5-(3,5-Difluoro-phenoxy)-4′-trifluoromethyl-biphenyl-3-yl]-4-methyl-pentanoicacid] | 770
